From patent US20230068020A1, “MACROLIDE COMPOUND AND ITS USE OF TREATMENT CHRONIC RESPIRATORY DISEASE” (priority 2020, published 2023)

Assays:
THP-1 cell = experiment: Differentiation of monocyte to macrophage in THP-1 cell line; type: cell-based; details: in words
in vivo = details: Sprague-Dawley, rat
Procedure: In another study, a single intravenous dose of two compounds was given to rats (N=3) at 30 mg/ml dosage following administration through the lateral tail vein in order to obtain the absolute oral bioavailability and clearance parameters. Compounds (10 mg/mL) was dissolved in 30% DMSO for IV injection and suspended in 0.5% CMC-Na for IG respectively.

- clearance (in vivo; iv): 50.2 mL/min/kg
- AUC(0-inf) (in vivo; male, po, 100 mg/kg): 7250 ng·h/mL
- AUC(0-t) (in vivo; male, po, 100 mg/kg): 7240 ng·h/mL
- Cmax (in vivo; male, po, 100 mg/kg): 2530 ng/mL
- Tmax (in vivo; male, po, 100 mg/kg): 2 h
- half-life (in vivo; male, po, 100 mg/kg): 0.93 h
Compound: CC[C@H]1OC(=O)[C@H](C)[C@@H](O[C@H]2C[C@@](C)(OC)[C@@H](O)[C@H](C)O2)[C@H](C)[C@@H](O[C@@H]2O[C@H](C)C[C@H](N(C)C)[C@H]2O)[C@](C)(O)C[C@@H](C)C(=O)[C@H](C)[C@@H](O)[C@]1(C)O [Erythromycin, reference compound]
- effect on THP-1 cell differentiation (THP-1 cell): promotional effect on THP-1 cell differentiation in a dose dependent manner
